# PMC11329928, “Design, synthesis and structure-activity relationship (SAR) studies of an unusual class of non-cationic fatty amine-tripeptide conjugates as novel synthetic antimicrobial agents” (Frontiers in Pharmacology, 2024)
# Where a name gives a salt, the structure may show the parent alone.
# Legend:
# S. pyogenes T membrane [1] = assay: Membrane permeation, SYTOX Green; type: cell-based, Streptococcus pyogenes
# Experimental: (§1) Permeation and depolarization of S. pyogenes ^T membrane by DICAMs were assayed with the fluorescent probes SYTOX Green and DiSC3(5), respectively, in a Varioskan Flash microplate reader (Thermo Scientific; Spain) using FluoroNunc 96-well plates (Thermo Scientific; Spain). For permeation assays, cells were grown to an OD550 ≈ 0.3, washed once with PBS pH 7.2 (3,800 × g, 7 min, room temperature), and adjusted to a final OD550 ≈ 0.4 (∼10^8 CFU/mL) with the same buffer before mixing in the dark with SYTOX Green (5 µM final concentration). One hundred µL of this suspension was dispensed per plate well and the signal stabilization was monitored for 15 min (λex = 485 nm; λem = 520 nm). Then, 100 µL of two-fold serially diluted lipopeptide samples was added and changes in fluorescence intensity were registered for 60 min at 37°C. SYTOX Green (900 Da) binds to intracellular DNA when the cell membrane is damaged, thereby increasing fluorescence intensity ([Roth et al., 1997]). Positive controls (100% membrane permeabilization) were carried out by adding Titron X-100 (0.01% final concentration) to untreated bacterial samples ([Rathinakumar et al., 2009]). For membrane depolarization assays, 180 µL of an OD550 ≈ 0.2 culture (BHI; ≈ 10^7 CFU/mL) supplemented with DiSC3(5) (1 µM final concentration) was distributed per well, and signal stabilization was registered for 30 min (λex = 622 nm; λem = 670 nm) ([Te Winkel et al., 2016]). Subsequently, 20 µL of a two-fold serial dilution of lipopeptide in culture medium was added, and fluorescence intensity was recorded for 60 min at 37°C. Partition of DiSC3(5) to the surface of polarized cells decreases the probe fluorescence, and its release, caused by membrane depolarization, results in an increase in fluorescence. […] The background signal of controls with bacterial cells without the fluorescent probe, as well as the dye fluorescence in the presence of the tested compounds without bacteria, were also registered. No change in the fluorescence intensity of the probes occurred upon DICAM addition in the absence of bacterial cells.
# S. pyogenes T membrane [2] = assay: Membrane depolarization, DiSC3(5); type: cell-based, Streptococcus pyogenes; conditions: S. pyogenes T in BHI, OD550 ≈ 0.2, DiSC3(5) 1 µM, 37°C
# Experimental: as §1
# S. pneumoniae D39 = assay: Viability after challenge at mid-exponential (T2) or early stationary (T3) phase; type: cell-based, Streptococcus pneumoniae; conditions: S. pneumoniae D39, 50 µM, C+Y, 37°C
# Experimental: The effect of DICAMs at different phases of culture growth was also investigated. DICAMs (50 μM) were added to cultures in the early exponential phase (OD550 ≈ 0.15; T1), late exponential phase (OD550 ≈ 0.3–0.4; T2), or near the stationary phase of growth (OD550 ≈ 0.5–0.7; T3) and the evolution of OD values was followed at 37°C for at least 2 h. By default, the variation in cell viability was also determined. Negative and positive controls were run in parallel.
# [3] = test system: S. pneumoniae R6 biofilms; assay: Killing of preformed biofilms; type: cell-based, Streptococcus pneumoniae; conditions: S. pneumoniae R6 biofilm, 1 h, 37°C, plating on blood agar
# Experimental: Biofilms were prepared as described ([Domenech and García, 2020]). Briefly, S. pneumoniae R6 cells in late exponential growth (OD550 ≈ 0.6; C + Y medium) were pelleted by centrifugation, resuspended in an equal volume of fresh medium, diluted 1/100 (4.5 × 10^6 CFU/mL), and then dispensed (200 µL per well) in 96-well flat-bottom polystyrene plates (Costar 3,595; Corning; Spain). After plate incubation at 34°C for 4.5 h without shaking, bacterial growth (non-adherent cells plus biofilm-forming cells) was determined by measuring the OD550 using a VersaMax microplate absorbance reader. The supernatant (non-adherent cells) was replaced by 200 μL of DICAM 4 (150, 300 or 600 µM) prepared by dilution in sterile water and plate incubation was continued for 1 h at 37°C. Plates were then washed and the biofilms disaggregated in sterile water for viable cell determination in Mueller-Hinton blood agar plates after overnight incubation at 37°C. For the observation of biofilms by CLSM, bacteria were grown on glass-bottomed dishes (WillCo-dish; WillCo Wells, Netherlands) and treated as above, plating 2 mL of the final inoculum per disc and then adding 0.5 mL of DICAM solution. […] Laser intensity and gain were kept the same for all images and they were analyzed using LCS software from Leica. […]
# [4] = test system: A549, IMR-90 and HeLa cells; conditions: 48 h
# Experimental: DICAM’s cytotoxicity was determined employing a modified MTT assay as described elsewhere ([Antúnez-Mojica et al., 2016]) using human lung carcinoma epithelial cells A549, human fetal lung fibroblasts IMR-90, and human HeLa cervix carcinoma cells treated with increasing concentrations of DICAMs (0.8–200 µM range). A549 cells were grown in RPMI 1640 (Gibco; Fisher Scientific, Spain) supplemented with 10% FCS, 2 mM glutamine, 100 IU/mL penicillin and 100 μg/mL streptomycin. IMR-90 and HeLa cells were cultured in DMEM (Gibco; Fisher Scientific, Spain) supplemented with 10% FCS, 2 mM L-glutamine, 1 mM pyruvate, 100 IU/L penicillin, 100 μg/mL streptomycin and 40 μg/mL gentamycin. Cell viability was assessed after 48 h exposure to DICAMs. Vinblastine was used as a positive control. IC50 value is the concentration that gives 50% inhibition of cell growth and was determined using SigmaPlot (Systat) fitting to a Four Parameter Logistic curve.
smiles,measurement,setting,value
"CCCCCCCCCCCCCCCCCCNC(=O)[C@H](CCC(=O)O)NC(=O)[C@H]1CCCN1C(=O)[C@H](C)NC(=O)OCc1ccccc1 [DICAM 3, Cbz-Ala- Pro -Glu-NH-C18H37]",Lag before steady increase in SYTOX Green fluorescence,"S. pyogenes T membrane [1]; S. pyogenes T in PBS pH 7.2, SYTOX Green 5 µM, 37°C, dose-dependent lag",more than 7 min
same,Time to plateau of SYTOX green influx (incomplete influx),"S. pyogenes T membrane [1]; S. pyogenes T, below 12.5 µM compound",around 40 min
same,Time for dissipation of the transmembrane potential,S. pyogenes T membrane [2],5 to 10 min
"CCCCCCCCCCCCCCCCCCNC(=O)[C@H](CCC(=O)O)NC(=O)[C@H]1CCCN1C(=O)[C@H](C)N [DICAM 4, Ala- Pro -Glu-NH-C18H37 ·HCl]","Death, addition at T3, approximately 3 h",S. pneumoniae D39,≥ 98%
same,"Decrease of viability, addition at T3, approximately 3 h",S. pneumoniae D39,≈ 1.7 log units
same,"Decrease of viability, addition at T2, 30 min",S. pneumoniae D39; 30 min incubation,≈ 3 log units
same,"Decrease of viability, addition at T2, 3 h",S. pneumoniae D39; 3 h incubation,~5 log units
same,Cells killed in preformed biofilms at 300 μM,[3],~90%
"CCCCCCCCCCCCCCCCCCNC(=O)[C@H](C)NC(=O)[C@H]1CCCN1C(=O)[C@H](C)N [DICAM 14, Ala- Pro -Ala-NH-C18H37 · HCl]",IC50,[4],7.3 µM
"CCCCCCCCCCCCCCCCCCNC(=O)[C@H](CCC(=O)O)NC(=O)[C@H]1CCCN1C(=O)[C@H](CCC(=O)O)NC(=O)OCc1ccccc1 [DICAM 19, Cbz-Glu- Pro -Glu-NH-C18H37]",Time for dissipation of the transmembrane potential,S. pyogenes T membrane [2],5 to 10 min
